{"source": "patent US20230125429A1", "about": "(priority 2017, published 2023)", "assay_in_all_cases": "Growth inhibitory effect, one hour exposure (IncuCyte Zoom)", "type_in_all_cases": "cell-based, human", "key": {"[1]": {"tested_on": "OVCAR-5", "conditions": "OVCAR-5, Ovarian", "protocol": "(§1) Cancer cell lines and immortalized human cell lines were cultured in 1640 tissue culture medium (Corning, USA) with 10% fetal bovine serum in a standard tissue culture condition of 37° C. and 5% CO2.\n(§2) For primary hepatocytes, the seeded cells were monitored for up to 48 hours either without any treatment (as a control) or with various types of treatments. For primary keratinocytes, cells in 48-well plates were monitored either without any treatment or with various types of treatment for up to 96 hours. For HepG2, cells 96-well plates were monitored either without any treatment or with various types of treatments for up to 48 hours. The IncuCyte Zoom was set to take a set of images at fixed locations (4 per well for 96-well plates and 16 per well for 48-well plates and 12-well plates) every three hours.\n(§3) The one-hour exposure is intended to simulate the transient high concentrations within the liver as the results of either the first pass effects of some orally administered drugs, or of locally delivered drugs, anticipating that such a short term exposure is nevertheless sufficient to affect certain cell surface receptors without causing any significant off-target effects due to intracellular absorption. Such a strategy would also reduce false hits due to reversible cell cycle arrests.\n(§4) To address this possibility, we investigated whether other cell lines, including other HCC cell lines, cell lines from other type of cancers, as well as non-cancer immortalized/transformed cell lines, were also sensitive to Triptonide. Specifically, a total of 51 human cancer cell lines, representing 10 types of human cancers (6 non-small cell lung cancer cell lines, 5 colon cancer cell lines, 5 central nerve system cancer cell lines, 8 Melanomas cell lines, 4 ovarian cancer cell lines, 4 renal cancer cell lines, 2 prostate cancer cell lines, 3 breast cancer cell lines, 7 hepatocellular carcinoma cell lines, and 4 gastric cancer cell lines) were analyzed."}, "[2]": {"tested_on": "ACHN", "conditions": "Renal", "protocol": "as §1, §2, §3, §4"}, "[3]": {"tested_on": "BGC823", "conditions": "BGC823, Gastric cancer", "protocol": "as §1, §2, §3, §4"}, "[4]": {"tested_on": "A498", "conditions": "A498, Renal", "protocol": "as §1, §2, §3, §4"}, "[5]": {"tested_on": "SN12C", "conditions": "Renal", "protocol": "as §1, §2, §3, §4"}, "[6]": {"tested_on": "NCI-H226", "conditions": "NCI-H226, Non-Small Cell Lung", "protocol": "as §1, §2, §3, §4"}, "[7]": {"tested_on": "HCT-15", "conditions": "HCT-15, Colon", "protocol": "as §1, §2, §3, §4"}, "[8]": {"tested_on": "T-47D", "conditions": "Breast", "protocol": "as §1, §2, §3, §4"}, "[9]": {"tested_on": "HepG2", "protocol": "as §1, §2, §3, §4"}, "[10]": {"tested_on": "M14", "conditions": "M14, Melanoma", "protocol": "as §1, §2, §3, §4"}, "[11]": {"tested_on": "U251", "conditions": "U251, CNS", "protocol": "as §1, §2, §3, §4"}, "[12]": {"tested_on": "PC-3", "conditions": "PC-3, Prostate", "protocol": "as §1, §2, §3, §4"}, "[13]": {"tested_on": "SNU-387", "conditions": "SNU-387, Hepatocellular carcinoma", "protocol": "as §1, §2, §3, §4"}, "[14]": {"tested_on": "HS 578T", "conditions": "Breast", "protocol": "as §1, §2, §3, §4"}, "[15]": {"tested_on": "MALME-3M", "conditions": "Melanoma", "protocol": "as §1, §2, §3, §4"}, "[16]": {"tested_on": "SK-MEL-2", "conditions": "SK-MEL-2, Melanoma", "protocol": "as §1, §2, §3, §4"}, "[17]": {"tested_on": "SF-539", "conditions": "SF-539, CNS", "protocol": "as §1, §2, §3, §4"}, "[18]": {"tested_on": "AGS", "conditions": "Gastric cancer", "protocol": "as §1, §2, §3, §4"}, "[19]": {"tested_on": "SNB-19", "conditions": "SNB-19, CNS", "protocol": "as §1, §2, §3, §4"}, "[20]": {"tested_on": "OVCAR-4", "conditions": "OVCAR-4, Ovarian", "protocol": "as §1, §2, §3, §4"}, "[21]": {"tested_on": "Huh7", "conditions": "Huh7, Hepatocelular carcinoma", "protocol": "as §1, §2, §3, §4"}, "[22]": {"tested_on": "NCI-H522", "conditions": "NCI-H522, Non-Small Cell Lung", "protocol": "as §1, §2, §3, §4"}, "[23]": {"tested_on": "HOP-62", "conditions": "HOP-62, Non-Small Cell Lung", "protocol": "as §1, §2, §3, §4"}, "[24]": {"tested_on": "SNU-449", "conditions": "SNU-449, Hepatocellular carcinoma", "protocol": "as §1, §2, §3, §4"}, "[25]": {"tested_on": "Hep3B", "conditions": "Hepatocellular carcinoma", "protocol": "as §1, §2, §3, §4"}, "[26]": {"tested_on": "OVCAR-3", "conditions": "OVCAR-3, Ovarian", "protocol": "as §1, §2, §3, §4"}, "[27]": {"tested_on": "UACC-257", "conditions": "UACC-257, Melanoma", "protocol": "as §1, §2, §3, §4"}, "[28]": {"tested_on": "IGR-OV1", "conditions": "IGR-OV1, Ovarian", "protocol": "as §1, §2, §3, §4"}, "[29]": {"tested_on": "EKVX", "conditions": "Non-Small Cell Lung", "protocol": "as §1, §2, §3, §4"}, "[30]": {"tested_on": "MDA-MB-435", "conditions": "MDA-MB-435, Melanoma", "protocol": "as §1, §2, §3, §4"}, "[31]": {"tested_on": "CAKI-1", "conditions": "CAKI-1, Renal", "protocol": "as §1, §2, §3, §4"}, "[32]": {"tested_on": "MGC803", "conditions": "MGC803, Gastric cancer", "protocol": "as §1, §2, §3, §4"}, "[33]": {"tested_on": "HT29", "conditions": "HT29, Colon", "protocol": "as §1, §2, §3, §4"}, "[34]": {"tested_on": "OVCAR-8", "conditions": "OVCAR-8, Ovarian", "protocol": "as §1, §2, §3, §4"}}, "note": "Where “and” joins values, the source holds several entries; their conditions need not be identical. Equal values may be shown once.", "data": [{"smiles": "CC(C)[C@]12O[C@H]1[C@@H]1O[C@@]13[C@@]1(C)CCC4=C(COC4=O)[C@@H]1C[C@@H]1O[C@@]13C2=O", "note": "[Triptonide]", "values": [{"measurement": "IC50", "setting": "[1]", "value": 8.23, "unit": "µM"}, {"measurement": "IC50", "setting": "[2]", "value": 15, "unit": "µM"}, {"measurement": "IC50", "setting": "[3]", "value": 10.4, "unit": "µM"}, {"measurement": "IC50", "setting": "[4]", "value": 4.34, "unit": "µM"}, {"measurement": "IC50", "setting": "[5]", "value": 1.07, "unit": "µM"}, {"measurement": "IC50", "setting": "[6]", "value": 11.2, "unit": "µM"}, {"measurement": "IC50", "setting": "[7]", "value": 1.18, "unit": "µM"}, {"measurement": "IC50", "setting": "[8]", "value": 1.81, "unit": "µM"}, {"measurement": "effect on growth of HepG2", "setting": "[9]; 4 µM or higher for one hour", "value": "significant growth inhibition"}, {"measurement": "effect on cell density of HepG2", "setting": "[9]; 16 µM and above, one hour", "value": "apparent reduction in cell density"}, {"measurement": "IC50", "setting": "[9]; HepG2, Hepatocellular carcinoma, one hour exposure", "value": "7.5 µM and 7.51 µM"}, {"measurement": "IC50", "setting": "[10]", "value": 4.93, "unit": "µM"}, {"measurement": "IC50", "setting": "[11]", "value": 43.2, "unit": "µM"}, {"measurement": "IC50", "setting": "[12]", "value": 6.71, "unit": "µM"}, {"measurement": "IC50", "setting": "[13]", "value": 6.82, "unit": "µM"}, {"measurement": "IC50", "setting": "[14]", "value": 1.86, "unit": "µM"}, {"measurement": "IC50", "setting": "[15]", "value": 3.44, "unit": "µM"}, {"measurement": "IC50", "setting": "[16]", "value": 0.608, "unit": "µM"}, {"measurement": "IC50", "setting": "[17]", "value": 1.14, "unit": "µM"}, {"measurement": "IC50", "setting": "[18]", "value": 4.07, "unit": "µM"}, {"measurement": "IC50", "setting": "[19]", "value": 51, "unit": "µM"}, {"measurement": "IC50", "setting": "[20]", "value": 1.54, "unit": "µM"}, {"measurement": "IC50", "setting": "[21]", "value": 1.75, "unit": "µM"}, {"measurement": "IC50", "setting": "[22]", "value": 23.1, "unit": "µM"}, {"measurement": "IC50", "setting": "[23]", "value": 9.23, "unit": "µM"}, {"measurement": "IC50", "setting": "[24]", "value": 4.92, "unit": "µM"}, {"measurement": "IC50", "setting": "[25]", "value": 1.28, "unit": "µM"}, {"measurement": "IC50", "setting": "[26]", "value": 4.9, "unit": "µM"}, {"measurement": "IC50", "setting": "[27]", "value": 16, "unit": "µM"}, {"measurement": "IC50", "setting": "[28]", "value": 4.66, "unit": "µM"}, {"measurement": "IC50", "setting": "[29]", "value": 2.38, "unit": "µM"}, {"measurement": "IC50", "setting": "[30]", "value": 1.91, "unit": "µM"}, {"measurement": "IC50", "setting": "[31]", "value": 6.15, "unit": "µM"}, {"measurement": "IC50", "setting": "[32]", "value": 2.58, "unit": "µM"}, {"measurement": "IC50", "setting": "[33]", "value": 1.7, "unit": "µM"}, {"measurement": "IC50", "setting": "[34]", "value": 7.29, "unit": "µM"}]}]}
